Data as given in patent US20250312493A1, “FLUOROPHORE-LOADED GELATIN-BASED NANOPARTICLES FOR NEAR-INFRARED IMAGING” (The Board of Trustees of the University of Illinois, priority 2022, published 2025).

Tests used:
[1] = Fluorescence intensity of blood after intravenous administration; format: in vivo, healthy nude mice; settings: 24-hour post-administration, equivalent to 2 mg/kg ICG
Method: Healthy nude mice were administered with either 100 μl PBS solutions of ICG-free or ICG-GNP I (equivalent to 2 mg/kg ICG) intravenously via retro-orbital injection. 100 μl of blood was collected from the lateral tail vein immediately and 24 hours after the administration, transferred to a 96-well plate, and analyzed their fluorescence intensity using the IVIS (n=3).

[2] = Fluorescence intensity at various ICG concentrations in PBS (IVIS); format: physicochemical; settings: 0.05 μM-100 μM ICG
Method: GNP I or GNP II dispersed in 1 ml of ICG in DI-H2O, with a GNP-to-ICG weight ratio of 20, were incubated for 2 hours at 25° C. The resulting suspension was centrifuged (13,000 rpm/5 min) to discard free ICG in the supernatant. The fluorescence intensity of naked ICG (ICG-free), ICG-loaded GNP I (ICG-GNP I) and GNP II (ICG-GNP II) at various ICG concentrations was recorded and quantified using an In Vivo Imaging System (IVIS, Perkin Elmer, Waltham, MA, USA) (ex 740/em 800 nm).

4T1 tumor = assay: In vivo NIR fluorescence imaging, tumor to background ratio; parameters: species or system mice
Method: Animal tumor model: Female immunodeficient mice (J:NU, 2 months old, average body weight 25 g) were purchased from the Jackson Laboratory (Bar Harbor, Maine, USA). Animal study was performed in strict accordance with the recommendations in the Guide for the Care and Use of Laboratory Animals of the National Institutes of Health. Breast cancer xenograft was established by the orthotopic administration of 100 μl 4T1 cell solution (10^6 cells per injection) at the mammary fat pad of the second nipple of the left side of each mouse using a 27G½ needle. Anesthesia was maintained by mask inhalation of 1.5-2.0% isoflurane throughout the procedure.
In vivo and ex vivo NIR fluorescence (NIRF) imaging: When the tumor area reached 10 mm^2 within 14 days, nine tumor-bearing mice were administered with ICG, ICG-GNP I or ICG-GNP II, i.e., three mice for each probe, […] The mice administered with ICG-GNP II were imaged using a bioinspired imaging sensor developed for NIRF image-guided surgery. At each time point, the fluorescence from the primary tumor and surrounding tissues (background) of mice under 2% isoflurane were recorded at 37° C. as regions of interest using the IVIS. A ratio between the mean fluorescence from the tumor and background was assessed and expressed as a TBR. […] The fluorescence intensity of each organ or tissue was acquired using the IVIS and bioinspired imaging sensor.

**Q.** For `CC1(C)C(/C=C/C=C/C=C/C=C2\N(CCCCS(=O)(=O)O)c3ccc4ccccc4c3C2(C)C)=[N+](CCCCS(=O)(=O)[O-])c2ccc3ccccc3c21` [ICG-free, indocyanine green], which “fluorescence of blood samples” value [1] is on record?
**A.** The value was “minimal fluorescence”.

**Q.** What about the “ICG concentration above which MFI decreases” value [2] of the same molecule?
**A.** Its value is “above 50 μM”.

**Q.** And the “ICG concentration at which MFI reaches a peak” value [2]?
**A.** Its value is 10 µM.

**Q.** And the “differences in MFI between the tumor and background” value (4T1 tumor; 1 mg/kg dose)?
**A.** Its value is “no measurable differences”.

**Q.** And the “TBR (tumor to background ratio)” value (4T1 tumor; during a 24-hour period, 2 mg/kg dose, IVIS)?
**A.** Its value is about 1.5.
